Data on one molecule can be found in patent publication US7625713B2, “Process for identifying a ligand that binds to the NEP binding site for the SMR1 pentapeptide” (Institut Pasteur, priority 2000, dated 2009).

The experiment deals with T1, NEP (Rattus norvegicus, UniProt P07861).
T1 construct: incubations of membrane and fresh tissue slice preparations from nervous tissues; from tissue; host or cells: dorsal spinal cord of male Wistar rats (fresh slices or 100 000 x g membrane fraction)
T1 sequence (P07861 1-750): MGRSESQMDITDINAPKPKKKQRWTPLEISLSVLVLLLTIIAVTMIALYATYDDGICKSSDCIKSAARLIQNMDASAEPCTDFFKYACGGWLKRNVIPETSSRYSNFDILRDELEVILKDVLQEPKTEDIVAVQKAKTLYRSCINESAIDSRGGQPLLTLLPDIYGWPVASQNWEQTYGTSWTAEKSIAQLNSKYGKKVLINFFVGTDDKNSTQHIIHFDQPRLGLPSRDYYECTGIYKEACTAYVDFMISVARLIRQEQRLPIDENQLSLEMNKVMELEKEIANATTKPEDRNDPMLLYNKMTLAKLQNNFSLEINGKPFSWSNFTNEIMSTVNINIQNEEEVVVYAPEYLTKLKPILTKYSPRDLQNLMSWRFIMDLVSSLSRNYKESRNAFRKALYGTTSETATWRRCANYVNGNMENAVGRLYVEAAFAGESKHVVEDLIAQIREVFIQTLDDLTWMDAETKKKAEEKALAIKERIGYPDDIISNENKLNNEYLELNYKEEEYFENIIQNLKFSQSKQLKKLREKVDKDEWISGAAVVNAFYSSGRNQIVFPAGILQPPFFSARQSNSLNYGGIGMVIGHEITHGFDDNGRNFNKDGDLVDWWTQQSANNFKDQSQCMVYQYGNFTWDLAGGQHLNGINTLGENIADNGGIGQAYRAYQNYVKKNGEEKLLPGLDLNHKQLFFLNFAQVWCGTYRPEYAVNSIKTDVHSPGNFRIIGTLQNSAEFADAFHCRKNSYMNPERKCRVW
The experiment is described as follows: Met-enkephalin hydrolysis by rat spinal cord slices and membrane preparations, RP-HPLC analysis. The experiment is classed as biochemical. To be noted: 10 μM combined with the inhibitors of CPB and DPPIV (10 μM), spinal cord slices, 20 min at 25° C. On the procedure: FIG. 2-B: […] Retention time) recovered after 20 min. incubation at 25° C. with 1 mg fresh tissue slices in a 1 ml final volume of KRBG buffer. The organs are rapidly removed, dissected on ice, freed of nerve fibers and of adipose tissues and then washed in cold oxygenated glucose- and bicarbonate-containing Krebs Ringer (KRBG) solution, whose composition is the following: 120 mM NaCl-5 mM KCl-1.2 mM KH2PO4-27.5 mM NaHCO3-2.6 mM CaCl2-0.67 mM MgSO4-5.9 mM glucose. The slices of tissues are prepared either manually with the aid of a scalpel (1-2 mm thick), or mechanically with the aid of a “Tissue Chopper” (1 mm thick). Slices are then dispersed into reaction tubes where they are subjected to three successive washes in ice-cold oxygenated KRBG. […] The organs dissected out and washed in ice-cold KRBG are homogenized at 4° C. in 10 volumes (vol./wt.) of 50 mM Tris/HCl buffered at pH 7.2, using a Teflon-glass homogenizer (3×5 sec.). […] The metabolism rate of the NEP-sensitive peptides was measured using the both NEP substrates involved in the signaling of the nociceptive response: the neuropeptides Met-enkephalin and Substance P. […] Their identification and relative quantification (peak height) are checked by continuously monitoring the UV absorbance at 254 nm of column outflow. […]

Where a SMILES comes first, the peptide text is derived from it.

For `N=C(N)NCCC[C@H](NC(=O)[C@@H]1CCCN1C(=O)[C@H](CC(N)=O)NC(=O)[C@H](Cc1c[nH]cn1)NC(=O)[C@@H](N)CCC(N)=O)C(=O)O` [sialorphin, Gln-His-Asn-Pro-Arg] (H-QHNPR-OH; N-terminus and C-terminus assumed), the “inhibition of Met-enkephalinase activity (Met-enkephalin degradation)” value is recorded as 80%.
